From ChEMBL document CHEMBL1201862, “PubChem BioAssay data set” (2004)
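Following 48 hours of exposure in 96-well plates, responses at five concentrations were used to interpolate endpoints linearly. GI50 marks 50% less growth.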 The source made the active and inactive calls. Rule as the data show it: active = GI50 up to about 1.1 µM and inactive = higher.

Experiments:
Assay in all cases: NCI-60 cell line screen, 48 h
SW-620 = tested on: SW-620
OVCAR-3 = tested on: OVCAR-3
OVCAR-5 = tested on: OVCAR-5
SF-268 = tested on: SF-268
SNB-75 = tested on: SNB-75
NCI/ADR-RES = tested on: NCI/ADR-RES
IGROV-1 = tested on: IGROV-1
DU-145 = tested on: DU-145
Malme-3M = tested on: Malme-3M
BT-549 = tested on: BT-549
Hs-578T = tested on: Hs-578T
UO-31 = tested on: UO-31
HT-29 = tested on: HT-29
HCT-116 = tested on: HCT-116
HOP-92 = tested on: HOP-92
SK-OV-3 = tested on: SK-OV-3
M14 = tested on: M14
SN12C = tested on: SN12C
K562 = tested on: K562
SF-295 = tested on: SF-295
MDA-N = tested on: MDA-N
NCI-H226 = tested on: NCI-H226
SK-MEL-2 = tested on: SK-MEL-2
NCI-H522 = tested on: NCI-H522
MOLT-4 = tested on: MOLT-4
SK-MEL-5 = tested on: SK-MEL-5
SK-MEL-28 = tested on: SK-MEL-28
786-0 = tested on: 786-0
UACC-62 = tested on: UACC-62
HCT-15 = tested on: HCT-15
RPMI-8226 = tested on: RPMI-8226
UACC-257 = tested on: UACC-257
CCRF-CEM = tested on: CCRF-CEM
MDA-MB-435 = tested on: MDA-MB-435
RXF 393 = tested on: RXF 393
TK-10 = tested on: TK-10
A498 = tested on: A498
U-251 = tested on: U-251
COLO 205 = tested on: COLO 205
OVCAR-8 = tested on: OVCAR-8
SNB-19 = tested on: SNB-19
EKVX = tested on: EKVX
NCI-H23 = tested on: NCI-H23
ACHN = tested on: ACHN
MDA-MB-231 = tested on: MDA-MB-231
HOP-62 = tested on: HOP-62
A549 = tested on: A549
CAKI-1 = tested on: CAKI-1
KM12 = tested on: KM12
OVCAR-4 = tested on: OVCAR-4
PC-3 = tested on: PC-3
T47D = tested on: T47D
LOX IMVI = tested on: LOX IMVI

Q: `Cc1ccccc1/N=N/c1cc(C)c(/N=N/c2c(O)ccc3ccccc23)cc1C` was tested. Which GI50 (SW-620) did it give?
A: > 100 µM (inactive)

Q: And the GI50 (OVCAR-3)?
A: > 100 µM (inactive)

Q: And the GI50 (OVCAR-5)?
A: > 100 µM (inactive)

Q: What about the GI50 (SF-268) of the same compound?
A: > 100 µM (inactive)

Q: What about the GI50 (SNB-75) of the same compound?
A: 73.1 µM (inactive)

Q: And the GI50 (NCI/ADR-RES)?
A: > 100 µM (inactive)

Q: And the GI50 (IGROV-1)?
A: > 100 µM (inactive)

Q: And the GI50 (DU-145)?
A: > 100 µM (inactive)

Q: What about the GI50 (Malme-3M) of the same compound?
A: > 100 µM (inactive)

Q: And the GI50 (BT-549)?
A: > 100 µM (inactive)

Q: And the GI50 (Hs-578T)?
A: 55.8 µM (inactive)

Q: And the GI50 (UO-31)?
A: > 100 µM (inactive)

Q: And the GI50 (HT-29)?
A: > 100 µM (inactive)

Q: What about the GI50 (HCT-116) of the same compound?
A: > 100 µM (inactive)

Q: And the GI50 (HOP-92)?
A: > 100 µM (inactive)

Q: And the GI50 (SK-OV-3)?
A: > 100 µM (inactive)

Q: What about the GI50 (M14) of the same compound?
A: > 100 µM (inactive)

Q: And the GI50 (SN12C)?
A: > 100 µM (inactive)

Q: And the GI50 (K562)?
A: > 100 µM (inactive)

Q: What about the GI50 (SF-295) of the same compound?
A: > 100 µM (inactive)

Q: And the GI50 (MDA-N)?
A: > 100 µM (inactive)

Q: And the GI50 (NCI-H226)?
A: > 100 µM (inactive)

Q: And the GI50 (SK-MEL-2)?
A: > 100 µM (inactive)

Q: And the GI50 (NCI-H522)?
A: > 100 µM (inactive)

Q: And the GI50 (MOLT-4)?
A: > 100 µM (inactive)

Q: What about the GI50 (SK-MEL-5) of the same compound?
A: > 100 µM (inactive)

Q: What about the GI50 (SK-MEL-28) of the same compound?
A: > 100 µM (inactive)

Q: What about the GI50 (786-0) of the same compound?
A: > 100 µM (inactive)

Q: What about the GI50 (UACC-62) of the same compound?
A: > 100 µM (inactive)

Q: What about the GI50 (HCT-15) of the same compound?
A: > 100 µM

Q: What about the GI50 (RPMI-8226) of the same compound?
A: > 100 µM (inactive)

Q: What about the GI50 (UACC-257) of the same compound?
A: > 100 µM (inactive)

Q: And the GI50 (CCRF-CEM)?
A: > 100 µM (inactive)

Q: And the GI50 (MDA-MB-435)?
A: > 100 µM (inactive)

Q: And the GI50 (RXF 393)?
A: > 100 µM (inactive)

Q: What about the GI50 (TK-10) of the same compound?
A: > 100 µM (inactive)

Q: And the GI50 (A498)?
A: > 100 µM (inactive)

Q: What about the GI50 (U-251) of the same compound?
A: 99.3 µM (inactive)

Q: What about the GI50 (COLO 205) of the same compound?
A: > 100 µM (inactive)

Q: And the GI50 (OVCAR-8)?
A: > 100 µM (inactive)

Q: And the GI50 (SNB-19)?
A: > 100 µM (inactive)

Q: And the GI50 (EKVX)?
A: > 100 µM (inactive)

Q: And the GI50 (NCI-H23)?
A: > 100 µM (inactive)

Q: What about the GI50 (ACHN) of the same compound?
A: > 100 µM (inactive)

Q: What about the GI50 (MDA-MB-231) of the same compound?
A: > 100 µM (inactive)

Q: What about the GI50 (HOP-62) of the same compound?
A: > 100 µM (inactive)

Q: What about the GI50 (A549) of the same compound?
A: > 100 µM (inactive)

Q: And the GI50 (CAKI-1)?
A: > 100 µM (inactive)

Q: What about the GI50 (KM12) of the same compound?
A: > 100 µM (inactive)

Q: What about the GI50 (OVCAR-4) of the same compound?
A: > 100 µM (inactive)

Q: And the GI50 (PC-3)?
A: > 100 µM (inactive)

Q: And the GI50 (T47D)?
A: > 100 µM (inactive)

Q: And the GI50 (LOX IMVI)?
A: > 100 µM (inactive)
